These results are taken from patent publication US10519504B2, “Methods for treatment of oncological disorders using epimetabolic shifters, multidimensional intracellular molecules, or environmental influencers” (Berg LLC, priority 2009, dated 2019).

Molecules are shown by their SMILES.

Assay [1] concerns Pancreatic Cancer Cells (PaCa2). Briefly: Real-time PCR Apoptosis Array. It counts as cell-based. The procedure:
Experiments were carried out essentially as described above.
For orientation: Real-time PCR tracks product formation cycle by cycle.

The subject of assay [2] is Lactate Dehydrogenase (LDH). As to the kind of experiment: Western blot, Lactate Dehydrogenase levels. It is filed as cell-based, human. The procedure: The samples were processed and run on a 4-12% Bis-Tris Novex NuPAGE gel as described above. The gels were run, transferred and stained essentially as described above.
After transfer each blot was dried for 15-20 minutes, activated with methanol for 5 seconds, washed with water for 5 minutes, and TBST for 15 minutes. The blots were blocked for 1 hour with 5% blocking reagent in TBS-T at room temperature and then washed 3 times with TBS-T (1X−15′; 2X5′ each) and probed with the primary antibody for Lactate Dehydrogenase (abcam ab2101; polyclonal) in 5% BSA (at 1:1000 dilutions) by incubation overnight at 4 deg C. with shaking. After the overnight incubation with primary antibody for Lactate Dehydrogenase, the blots were washed 3 times with TBS-T (1X−15′; 2X5′ each) and probed with the secondary antibody (rabbit antigoat; 1:10,000 dilution) for 1 h at room temperature. After 1 h of incubation with secondary antibodies, the blots were washed 3 times with TBS-T (1X−15′; 2X5′ each) and then incubated with ECF reagent for 5 mins and then each blot scanned with 5100 Fuji Laser scanner at 25 uM resolution, 16 bit, green laser, at 400V and at 500 V. […]
The levels of LDH and PDH were determined by probing the blots successively with primary antibodies for LDH and PDH, essentially as described above. […]
In general terms: Immunoblotting shows a protein as a band on a membrane.

Take `COC1=C(OC)C(=O)C(C/C=C(\C)CC/C=C(\C)CC/C=C(\C)CC/C=C(\C)CC/C=C(\C)CC/C=C(\C)CC/C=C(\C)CC/C=C(\C)CC/C=C(\C)CCC=C(C)C)=C(C)C1=O` [Q10, Coenzyme Q10]: the “apoptosis array genes (ABL1, AKT1, Bcl2L1 ... TNFSF10 as listed)” value in assay [1] (100 uM Q10) is recorded as “modulated by Q10 treatment”. Also, the “genes from the apoptosis array whose expression is regulated” value in assay [1] (100 μM Q10, genes: CASP1, CASP6, TNF, TNFSF10, ABL1, AKT1, BclAF1, Bcl2L1, CASP2, CIDEA, FADD, LTA, TNFSF10A) was “A list of genes from the apoptosis array whose expression is regulated”. Moreover, the LDH expression entry was “reduced Lactate Dehydrogenase (LDH) expression in cancer” in assay [2] (cancer) and “minimal effect on normal cells” in assay [2] (normal cells).
